Laboratory results taken from patent US7592154B2, “Modulating SOS response induction by antimicrobial agents” (The Board of Trustees of the Leland Stanford Junior …, priority 2005, dated 2009).

Experiments:
[1] = system: dpiB promoter (dpiBA operon); test: dpiB/lacZ reporter fusion (pHI1508), β-galactosidase synthesis; format: cell-based, E. coli; conditions: for expression of the dpi operon (lacZ reporter fusion to the dpiB promoter): E. coli UT481 pHI1508, 30° C., antibiotics at approximately twice the MIC (FIG. 2A)
Experimental: FIGS. 2A-2C. […] (A) Expression of the dpi operon as measured in lacZ^− E. coli strain UT481 by a lacZ reporter fusion to the dpiB promoter on pHI1508 [in Miller units]. Bacteria were grown at 30° C. with or without (black squares) antibiotics. […] All antibiotics were added at approximately twice the MIC value for E. coli. All points represent the average of at least three separate experiments. (B) Induction of dpiB/lacZ (as measured by β-galactosidase expression calculated in Miller units) in E. coli JOE339, a lacZ^− mutant strain that carries an ftsl^ts mutation. […] (C) Same as (B) but in MC4100, the parent of JOE339. For (B) and (C), bars indicate SD.
We wished to identify stimuli that activate the dpiBA operon; to monitor such activation, we fused a Hind III-Sma I DNA segment containing the region 5′ to dpiB to a lacZ reporter gene fragment (pHI1508 in FIG. 1A) pHI1508 carries a HindIII-SmaI fragment containing the dpiBA operator/promoter and the first 1219 nucleotides of dpiB (indicated by the heavy bar), inserted into the StuI-HindIII sites of pHI1496, fusing it to the lacZ reporter gene (S1). β-Galactosidase synthesis from this construct was investigated under a variety of growth-limiting conditions known to activate two-component systems and/or the SOS response (including growth in media containing different carbon sources; starvation for O2, PO4, or carbon; heat or cold shock; high salt; exposure to ultraviolet light; culture in stationary phase or in conditioned media; and concentration to a high cell density).

[2] = system: E. coli SC1088 wild-type and dpiA, recA, sfiA null mutants; test: survival of bacterial cultures exposed to antibiotic (cfu counting); format: cell-based; conditions: for effectiveness (survival) in recA mutant cells versus wild type SC1088: naladixic acid 5 μg/ml, pipericillin 1 μg/ml, kanamycin 5 μg/ml (FIGS. 5A-5C)
Experimental: FIG. 4. Effect of SOS response induction on survival of bacterial cells expressing DpiA during β-lactam exposure. […] Survival data are also shown for strains containing null mutations in recA (open diamonds), dpiA (open circles), or sfiA (open triangles). […] Percent survival was determined by counting of colony forming units (cfu's), at least 200 colonies were counted per time point, and plotted as a function of exposure time before exposure or after exposure to antibiotics.
Because β-lactam antibiotics kill only bacteria that are dividing, we hypothesized that the ability of these drugs to induce the SOS response, and consequently delay cell division by increasing the expression of sfiA, may provide temporary protection from β-lactam lethality.
The experiments shown in FIG. 4 were repeated with the antibiotics: naladixic acid, at 5 μg/ml; pipericillin, at 1 μg/ml; and kanamycin at 5 μg/ml. As shown in FIGS. 5A-5C, the black squares are wild type cells, strain SC1088, the green circles are the dpiA null strain in that background, and the red diamonds are the recA mutation in that background.

E. coli PBPs = conditions: cited from earlier work
RecA protein = test: Western blot with anti-RecA antibody; format: cell-based, E. coli; conditions: one hour of exposure, relative to absence of induction
Excerpt: Chemiluminescence of bands was quantitated using a BioRad Versadoc 1000 instrument.

[3] = system: pabA promoter (gene up-regulated by DpiA); test: pabA/lacZ fusion (pHI1627), β-galactosidase production; format: cell-based, E. coli; conditions: ampicillin 10 μg/ml, 2 hours, 37° C.
Excerpt: A library of E. coli promoters fused to a lacZ gene fragment was constructed as follows: SC1088 chromosomal DNA was partially digested with Sau3AI and 1-2 kb fragments were gel extracted, purified, and ligated to the BamHI site of pHI1496, a lacZ expression vector conferring chloramphenicol resistance (S1). […] Three clones were sequenced and found to contain a 5 kb insert in which the melR promoter region was fused to lacZ (pHI1626), a 300 bp fragment that includes the promoter region of pabA (pHI1627), and a 2.5 kb insert containing the 57-minute region of the E. coli chromosome (pHI1628).

dpiBA transcripts = test: quantitative RT-PCR of dpiBA transcripts; format: cell-based, E. coli; conditions: SC1088, 30° C., ampicillin 4 μg/ml for 4 hours (FIG. 1C)
Excerpt: (§1) FIGS. 1A-1C. Structure and transcripts of the dpiBA operon. (A) The dpiB and dpiA genes are aligned in the 5′-3′ direction; citC is 5′ of the dpiBA promoter/operator region and is transcribed divergently from it. The segment of the dpiBA operon included in plasmid pHI1508 is indicated. (B) Agarose gel electrophoresis showing bands generated by reverse transcription PCR amplification of E. coli SC1088 RNA using pairs of oligonucleotide primers corresponding to sequences within dpiB (lane 1, primers a+b), dpiA (lane 2, primers c+d), or both genes (lane 3, primers a+d). Locations of primer sequences are indicated in (A). […] Amounts of template RNA used and loaded onto gels were equal, as assessed by intensity of 16S rRNA bands (bottom panel).

citC gene = test: quantitative RT-PCR of citC expression; format: cell-based, E. coli; conditions: SC1088, 30° C., ampicillin 4 μg/ml for 4 hours (FIG. 1C)
Excerpt: as §1

[4] = system: SOS-regulated promoter of the sfiA gene; test: sfiA/lacZ fusion, measure of SOS response; format: cell-based, E. coli
Excerpt: FIGS. 3A-3B. SOS response induced by PBP3 inactivation. […] Both (A) and (B) are averages of three separate experiments. Strains were constructed by P1 transduction. Strain 1088 was transduced with phage P1 from E. coli strains containing recA::Tn10(S3) and lexA71::Tn5 (from Mary Berlyn, CGSC). Strain BR5171 is BR3151 (S4) containing a kanamycin resistance gene introduced into the dpiA locus to create a null mutation; another BR3151 derivative, BR7171, contains a Tn10 insertion in the recA locus to create a null mutation. […] An sfiA/lacZ fusion closely linked to a kanamycin resistance marker (S5) was incorporated into the chromosome of ftsIts strain JOE339 and a JOE339 derivative containing a chloramphenicol resistance gene in the dpiA gene (S1).
A biological consequence of DpiA overexpression is induction of the SOS response; the extent of such induction can be determined by β-galactosidase synthesis from a lacZ fusion with the SOS-regulated promoter of the sfiA gene [e.g. Bacolla et al. (2001) J. Biol. Chem. 276, 18579; Hendricks et al. (2000) Mol. Microbiol. 36, 973], which prevents FtsZ polymerization and inhibits cell division when SOS is activated.
The dependence of β-lactam/PBP3-mediated SOS induction on dpiA contrasted with the lack of effect of the dpiA mutation on RecA expression induced by the DNA damaging agent mitomycin C, indicating the distinctive nature of the cell wall-mediated and DNA damage-mediated paths to SOS induction.

[5] = system: dpiB promoter (dpiBA operon); test: dpiB/lacZ reporter fusion (pHI1508), β-galactosidase synthesis; format: cell-based, E. coli; conditions: ampicillin 10 μg/ml, 2 hours, 37° C.

Molecule: CCN1CCN(C(=O)N[C@@H](C(=O)N[C@@H]2C(=O)N3[C@@H]2SC(C)(C)[C@@H]3C(=O)O)c2ccccc2)C(=O)C1=O [pipericillin]
- expression of the dpi operon (lacZ reporter fusion to the dpiB promoter) [1]: stimulated
- survival relative to the number before addition of antibiotic ([2]; dpiA mutant bacteria, overnight exposure, 2 μg/ml): 0.001%
- effectiveness (survival) in recA mutant cells versus wild type SC1088 [2]: more effective
- surviving wild-type bacteria versus dpiA mutant bacteria ([2]; overnight exposure, 2 μg/ml): 10 times
- survival relative to the number before addition of antibiotic ([2]; wild-type bacteria, overnight exposure, 2 μg/ml): 0.01%
- binding to E. coli PBPs (E. coli PBPs): bind only to PBP3

Molecule: CO[C@@]12[C@H](COC(N)=O)C3=C(C(=O)C(C)=C(N)C3=O)N1C[C@@H]1N[C@@H]12 [mitomycin C]
- RecA protein increase (RecA protein; dpiA::Km null mutant): 2.0±0.3 fold
- RecA protein increase (RecA protein; wt strain 1088, 4 μg/ml): 1.5±0.2 fold

Molecule: CC1(C)S[C@@H]2[C@H](NC(=O)[C@H](N)c3ccccc3)C(=O)N2[C@H]1C(=O)O [ampicillin]
- expression of the dpi operon (lacZ reporter fusion to the dpiB promoter) [1]: stimulated
- induction of the dpi operon ([1]; ampicillin resistant bacteria carrying a plasmid borne gene encoding β-lactamase): not observed
- β-Galactosidase production ([3]; WT strain 1088 + pHI1627): 185 ± 20 Miller units
- β-Galactosidase production ([3]; dpiA null mutant + pHI1627): 18 ± 1 Miller units
- increase in dpiBA transcripts (dpiBA transcripts): fourfold
- increase in expression of citC gene (citC gene): threefold
- lacZ expression from sfiA/lacZ fusion ([4]; BR3151, ampicillin 4 μg/ml (FIG. 3A)): increased lacZ expression
- sfiA/lacZ expression ([4]; bacteria containing a dpiA null mutation, ampicillin 4 μg/ml (FIG. 3A)): no change
- effect on expression of the sfiA/lacZ fusion ([4]; recA or lexA mutants, ampicillin treatment (FIG. 3A)): prevented the effects
- RecA protein increase (RecA protein; dpiA::Km null mutant): no increase
- RecA protein increase (RecA protein; wt strain 1088, 4 μg/ml): 1.9±0.4 fold
- cells unable to form colonies ([2]; cells mutated in dpiA, recA, or sfiA, 1 hour exposure, 3 μg/ml): 90%
- exposure required for the same extent of killing (90%) of wild-type cells ([2]; 3 μg/ml): 4 h
- exposure required for the same extent of killing (90%) of wild-type cells ([2]; 9 μg/ml): 1 h
- β-Galactosidase production ([5]; WT strain 1088 + pHI1508): 345 ± 50 Miller units
- β-Galactosidase production ([5]; dpiA null mutant + pHI1508): 113 ± 15 Miller units
- β-Galactosidase production ([5]; lexA null mutant + pHI1508): 110 ± 10 Miller units
- β-Galactosidase production ([5]; recA null mutant + pHI1508): 80 ± 8 Miller units
- binding to E. coli PBPs (E. coli PBPs): binds to all 12 E. coli PBPs

Molecule: CC1=C(C(=O)O)N2C(=O)[C@@H](NC(=O)[C@H](N)c3ccccc3)[C@H]2SC1 [cephalexin]
- expression of the dpi operon (lacZ reporter fusion to the dpiB promoter) [1]: stimulated
- binding to E. coli PBPs (E. coli PBPs): bind only to PBP3

Molecule: CCn1cc(C(=O)O)c(=O)c2ccc(C)nc21 [nalidixic acid]
- effectiveness (survival) in recA mutant cells versus wild type SC1088 [2]: more effective

Molecule: penicillin
- expression of the dpi operon (lacZ reporter fusion to the dpiB promoter) [1]: stimulated

Molecule: CO/N=C(\C(=O)N[C@@H]1C(=O)N2C(C(=O)O)=C(COC(N)=O)CS[C@H]12)c1ccco1 [cefuroxan]
- expression of the dpi operon (lacZ reporter fusion to the dpiB promoter) [1]: stimulated
